A word on the NOAEL: it is the highest dose or exposure tested at which no adverse effect was seen.

The test system of data set [1] is Anas platyrhynchos.
Data set [2] concerns Canidae. Conditions: subchronic; duration: 90 days; oral; Dog Other.
In data set [3] the test system is Colinus virginianus.
Data set [4] has as its system Mus musculus.
Data set [5] relates to Oryctolagus sp. Conditions: developmental; development.
The test system of data set [6] is Rattus norvegicus. Conditions: oral.

The structures appear in SMILES notation.

On to `CCCCOC(=O)[C@@H](C)Oc1ccc(Oc2ccc(C#N)cc2F)cc1` [Cyhalofop-butyl], for which the LD50 in data set [1] (acute, oral, unspecified, mortality) is over 2250 mg/kg-day; in data set [3] (acute, oral, mortality) it was over 2250 mg/kg-day; in data set [6] (acute, mortality), over 5000 mg/kg-day. Moreover, the NOEC in data set [1] (reproductive, reproduction) worked out at 80 mg/kg-day; in data set [3] (reproduction developmental, reproduction) it was 80 mg/kg-day. In addition, the LC50 in data set [1] (short-term, oral, feed, mortality) was over 5620 mg/kg; in data set [3] (acute, oral, diet, mortality) it was over 5620 mg/kg. Moreover, the no-observed-adverse-effect level (NOAEL) in data set [2] was found to be 3 mg/kg-day; in data set [4] (chronic, duration: 78 weeks), 0.8 mg/kg-day; in data set [4] (subchronic, duration: 90 days, oral), 3 mg/kg-day; in data set [5] it was 40 mg/kg-day; in data set [6] (subchronic, duration: 90 days) it was 3 mg/kg-day.
